We go through one substance from patent US7150974B1, “Parathyroid hormone receptor binding method” (The General Hospital Corporation, priority 1991, dated 2006).

This assay has as its target T1, rat bone PTH/PTHrP receptor (Rattus norvegicus, UniProt P25961, E586G).
T1 construct: expressed in transfected cells; host or cells: COS / COS-7 cells, transient, plasmid R15B (pcDNA I)
T1 sequence (P25961 27-591 E586G): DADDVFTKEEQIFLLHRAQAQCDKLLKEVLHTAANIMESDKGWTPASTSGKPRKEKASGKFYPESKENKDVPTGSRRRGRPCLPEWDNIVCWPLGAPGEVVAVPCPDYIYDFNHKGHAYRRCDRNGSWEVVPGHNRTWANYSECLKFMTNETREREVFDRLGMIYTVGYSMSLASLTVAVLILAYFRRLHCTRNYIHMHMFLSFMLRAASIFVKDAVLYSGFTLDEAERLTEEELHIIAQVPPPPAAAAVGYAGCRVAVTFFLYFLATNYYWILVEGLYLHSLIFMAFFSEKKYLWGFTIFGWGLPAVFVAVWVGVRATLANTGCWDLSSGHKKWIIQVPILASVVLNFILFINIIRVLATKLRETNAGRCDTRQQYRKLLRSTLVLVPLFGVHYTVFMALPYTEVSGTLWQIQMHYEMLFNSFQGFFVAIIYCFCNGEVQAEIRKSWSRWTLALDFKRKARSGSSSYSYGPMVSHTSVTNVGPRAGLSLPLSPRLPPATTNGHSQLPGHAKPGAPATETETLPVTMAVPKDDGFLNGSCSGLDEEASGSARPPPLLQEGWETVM
The assay can be described thus: cAMP accumulation, COS cells expressing R15B. The assay is classed as cell-based. On the procedure: Intracellular cAMP accumulation was measured as described previously (Abou-Samra et al., J. Biol. Chem. 262:1129, 1986). Cells in 24-well plates were rinsed with culture medium containing 0.1% BSA and 2 mM IBMX. […] The supernatant was removed and the cells immediately frozen by placing the whole plate in dry ice powder. Intracellular cAMP was extracted by thawing the cells in 1 ml of 50 mM HCl and analyzed by a specific radioimmunoassay using an anti-cAMP antibody (e.g., Sigma, St. Louis, Mo.). A cAMP analog (2′-O-monosuccinyl-adenosine 3′:5′-cyclic monophosphate tyrosyl methyl ester, obtained from Sigma) which was used a tracer for cAMP was iodinated by the chloramine T method. Free iodine was removed by adsorbing the iodinated cAMP analog onto a C18 Sep-pak cartridge (Waters, Milford, Mass.). After washing with dH2O, the iodinated cAMP analog was eluted from the Sep-pak Cartridge with 40% acetonitrille (ACN) and 0.1% trifluoroacetic acid (TFA). The iodinated cAMP analog was lyophilized, reconstituted in 1 ml 0.1% TFA, and injected into a C18 reverse phase HPLC column (Waters). The column was equilibrated with 10% ACN in 0.1% TFA, and eluted with gradient of 10-30% ACN in 0.1% TFA. This allows separation of the mono-iodinated cAMP analog from the non-iodinated cAMP analog. […] The standard used for the assay, adenosine 3′:5′-cyclic monophosphate, was purchased from Sigma. […]

For the substance [Nle^8,18, Tyr^34]bPTH(1-34)amide, the cAMP accumulation entry (COS cells expressing R15B, FIG. 16) is “increase cAMP accumulation”. For the same substance, the “cAMP accumulation, PTH(1-34) compared with PTHrP(1-36)” value (COS-7 cells expressing rat receptor) is recorded as “to the same extent”.
